Test system: 699152-130-R-J1-PDC complex spheroid viability
Assay: Anticancer human tumor 699152-130-R-J1-PDC patient-derived pancreatic carcinoma cell line growth inhibition [POLQ]
Settings: for IC50: curve of first compound; for viability, T/C: stronger effect = lower value
Procedure, shortened: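 Growth inhibition in 3D: complex spheroids (tumor PDC, HUVEC, MSC) treated with POLQ inhibitor combinations; where Cmax unknown, highest tested concentration 10 microM, except SN-38 at 1 microM.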

[1] = second compound 0.0316 µM, first compound 0.0316 µM
[2] = second compound 0.0316 µM, first compound 0.1 µM
[3] = second compound 0.0316 µM, first compound 0.316 µM
[4] = second compound 0.0316 µM, first compound 1 µM
[5] = second compound 0.0316 µM, first compound 3.16 µM
[6] = second compound 0.0316 µM, first compound 10 µM
[7] = second compound 0.1 µM, first compound 0.0316 µM
[8] = second compound 0.1 µM, first compound 0.1 µM
[9] = second compound 0.1 µM, first compound 0.316 µM
[10] = second compound 0.1 µM, first compound 1 µM
[11] = second compound 0.1 µM, first compound 3.16 µM
[12] = second compound 0.1 µM, first compound 10 µM
[13] = second compound 0.316 µM, first compound 0.0316 µM
[14] = second compound 0.316 µM, first compound 0.1 µM
[15] = second compound 0.316 µM, first compound 0.316 µM
[16] = second compound 0.316 µM, first compound 1 µM
[17] = second compound 0.316 µM, first compound 3.16 µM
[18] = second compound 0.316 µM, first compound 10 µM
[19] = second compound 1 µM, first compound 0.0316 µM
[20] = second compound 1 µM, first compound 0.1 µM
[21] = second compound 1 µM, first compound 0.316 µM
[22] = second compound 1 µM, first compound 1 µM
[23] = second compound 1 µM, first compound 3.16 µM
[24] = second compound 1 µM, first compound 10 µM
[25] = second compound 3.16 µM, first compound 0.0316 µM
[26] = second compound 3.16 µM, first compound 0.1 µM
[27] = second compound 3.16 µM, first compound 0.316 µM
[28] = second compound 3.16 µM, first compound 1 µM
[29] = second compound 3.16 µM, first compound 3.16 µM
[30] = second compound 3.16 µM, first compound 10 µM
[31] = second compound 10 µM, first compound 0.0316 µM
[32] = second compound 10 µM, first compound 0.1 µM
[33] = second compound 10 µM, first compound 0.316 µM
[34] = second compound 10 µM, first compound 1 µM
[35] = second compound 10 µM, first compound 3.16 µM
[36] = second compound 10 µM, first compound 10 µM
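Further: spheroids exposed to agents for 7 days before viability reading.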
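Wherever viability, T/C is given: percent of DMSO vehicle control viability so 100% = vehicle and 0% = no viable signal.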

COc1cccc2c1C(=O)c1c(O)c3c(c(O)c1C2=O)CC(O)(C(=O)CO)CC3OC1CC(N)C(O)C(C)O1 (centres undefined) + COC1C(OC(N)=O)C(O)C(Oc2ccc3c(O)c(NC(=O)c4ccc(O)c(CC=C(C)C)c4)c(=O)oc3c2C)OC1(C)C was tested, and the IC50 (second compound 0.0316 µM) was 284 nM, the IC50 (second compound 0.1 µM) was 235 nM and the IC50 (second compound 0.316 µM) was 244 nM. The IC50 (second compound 1 µM) was 225 nM, the IC50 (second compound 3.16 µM) was 300 nM and the IC50 (second compound 10 µM) was 304 nM. It also gave a viability, T/C [1] of 82.1%, a viability, T/C [2] of 92.9% and a viability, T/C [3] of 43.7%. It also gave a viability, T/C [4] of 24.3%, a viability, T/C [5] of 3.71% and a viability, T/C [6] of 9.4%. It also gave a viability, T/C [7] of 79%, a viability, T/C [8] of 86.8% and a viability, T/C [9] of 38.5%. It also gave a viability, T/C [10] of 27%, a viability, T/C [11] of 3.59% and a viability, T/C [12] of 13.3%. For the same compound, the viability, T/C [13] was 66.8%, the viability, T/C [14] was 97.2% and the viability, T/C [15] was 40.7%. The viability, T/C [16] was 26.1%, the viability, T/C [17] was 2.4% and the viability, T/C [18] was 10.4%. The viability, T/C [19] was 69.7%, the viability, T/C [20] was 96.7% and the viability, T/C [21] was 35.9%. It also gave a viability, T/C [22] of 27.5%, a viability, T/C [23] of 2.69% and a viability, T/C [24] of 12.1%. The viability, T/C [25] was 73%, the viability, T/C [26] was 88.1% and the viability, T/C [27] was 41.5%. The viability, T/C [28] was 28%, the viability, T/C [29] was 3.59% and the viability, T/C [30] was 10.6%. For the same compound, the viability, T/C [31] was 76%, the viability, T/C [32] was 95.2% and the viability, T/C [33] was 48.8%. For the same compound, the viability, T/C [34] was 21.6%, the viability, T/C [35] was 6.39% and the viability, T/C [36] was 13.2%.
In the case of COc1cc2cc(C(=O)CCC(=O)O)sc2cc1OC + Nc1ccc(C#CCN(C(=O)Cc2ncc(C(F)(F)F)cc2C(F)(F)F)c2ccc(F)cc2)nn1, the IC50 (second compound 0.0316 µM) is reported as > 10000 nM, the IC50 (second compound 0.1 µM) is reported as > 10000 nM and the IC50 (second compound 0.316 µM) is reported as > 10000 nM. The IC50 (second compound 1 µM) was > 10000 nM, the IC50 (second compound 3.16 µM) was > 10000 nM and the IC50 (second compound 10 µM) was > 10000 nM. For the same compound, the viability, T/C [1] was 88.3%, the viability, T/C [2] was 94% and the viability, T/C [3] was 90.2%. For the same compound, the viability, T/C [4] was 98.3%, the viability, T/C [5] was 102% and the viability, T/C [6] was 88.9%. It also gave a viability, T/C [7] of 99%, a viability, T/C [8] of 93.8% and a viability, T/C [9] of 95.5%. It also gave a viability, T/C [10] of 110%, a viability, T/C [11] of 107% and a viability, T/C [12] of 106%. It also gave a viability, T/C [13] of 104%, a viability, T/C [14] of 97.3% and a viability, T/C [15] of 90.3%. It also gave a viability, T/C [16] of 105%, a viability, T/C [17] of 105% and a viability, T/C [18] of 104%. For the same compound, the viability, T/C [19] was 102%, the viability, T/C [20] was 94.2% and the viability, T/C [21] was 133%. It also gave a viability, T/C [22] of 96.9%, a viability, T/C [23] of 110% and a viability, T/C [24] of 97.8%. It also gave a viability, T/C [25] of 119%, a viability, T/C [26] of 122% and a viability, T/C [27] of 104%. It also gave a viability, T/C [28] of 102%, a viability, T/C [29] of 91.8% and a viability, T/C [30] of 102%. For the same compound, the viability, T/C [31] was 114%, the viability, T/C [32] was 124% and the viability, T/C [33] was 121%. The viability, T/C [34] was 111%, the viability, T/C [35] was 112% and the viability, T/C [36] was 109%.

Source: PubChem BioAssay AID1963835 (Molecular Pharmacology Branch, DTP, NCI, 2024)
